Measurements from patent US20260174786A1, “A NITROGEN-CONTAINING SPIROCYCLIC COMPOUND, PHARMACEUTICAL COMPOSITION AND USE THEREOF” (Prime Gene Therapeutics Co., Ltd., priority 2022, published 2026).

target: T1, hTRPV3 (Homo sapiens, UniProt Q8NET8); assay: Whole cell patch clamp inhibition rate test on HEK-293 cells instantaneously expressing TRPV3; assay type: cell-based; details: HEK293; hTRPV3, single concentration 0.3 μM
T1 construct: expressed in transfected cells; host or cells: HEK-293
T1 sequence (Q8NET8 1-790): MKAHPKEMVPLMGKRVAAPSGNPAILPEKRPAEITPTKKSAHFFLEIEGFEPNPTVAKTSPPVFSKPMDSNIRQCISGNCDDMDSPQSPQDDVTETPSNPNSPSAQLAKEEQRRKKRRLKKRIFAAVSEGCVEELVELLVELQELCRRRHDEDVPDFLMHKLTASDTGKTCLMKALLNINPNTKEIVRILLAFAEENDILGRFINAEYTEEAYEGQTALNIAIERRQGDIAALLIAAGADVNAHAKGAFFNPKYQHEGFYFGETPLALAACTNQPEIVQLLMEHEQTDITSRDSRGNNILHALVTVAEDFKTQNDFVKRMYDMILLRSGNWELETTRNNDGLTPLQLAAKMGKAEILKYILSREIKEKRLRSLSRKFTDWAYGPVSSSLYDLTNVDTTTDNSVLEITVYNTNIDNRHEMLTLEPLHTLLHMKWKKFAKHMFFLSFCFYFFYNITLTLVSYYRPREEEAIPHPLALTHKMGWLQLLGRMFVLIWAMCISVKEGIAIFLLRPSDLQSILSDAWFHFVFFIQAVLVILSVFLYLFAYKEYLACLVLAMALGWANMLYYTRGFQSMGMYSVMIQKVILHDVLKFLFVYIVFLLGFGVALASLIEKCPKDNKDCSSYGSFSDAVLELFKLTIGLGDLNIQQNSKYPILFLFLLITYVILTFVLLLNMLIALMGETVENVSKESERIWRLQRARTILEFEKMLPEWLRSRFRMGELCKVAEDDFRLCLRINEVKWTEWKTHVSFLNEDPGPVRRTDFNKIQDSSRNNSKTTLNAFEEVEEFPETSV
Summary of the method: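 HEK-293 cells transiently transfected with TRPV3, recorded next-but-one day by whole-cell patch clamp at room temperature: holding −80 mV, ramp −100 to 100 mV over 100 ms every 5 s, peak current monitored. Ascending concentrations perfused, 5 min each; each cell its own control, at least two cells per concentration.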

Compound	inhibition at 0.3 µM
O=C(c1ccc(F)cn1)N1CCC2(CC(O)c3cc(-c4ccccc4OC(F)(F)F)ccc32)C1 (stereo not shown) [Example 82, (5-fluoropyridin-2-yl)(3-hydroxy-5-(2-(trifluoromethoxy)phenyl)-2,3-dihydrospiro[indene-1,3′-pyrrolidine]-1′-yl) ketone]	50 to 70%
O=C(c1ccc(F)cn1)N1CCC2(CC(O)c3cc(-c4cc(F)ccc4C4CC4)ccc32)C1 (stereo not shown) [Example 83, (5-(2-cyclopropyl-5-fluorophenyl)-3-hydroxy-2,3-dihydrospiro[indene-1,3′-pyrrolidine]-1′-yl)(5-fluoropyridin-2-yl) ketone]	70 to 100%
O=C(c1ccc(F)cn1)N1CCC2(CC(O)c3cc(-c4ccccc4)ccc32)C1 (stereo not shown) [Example 84, (5-fluoropyridin-2-yl)(3-hydroxy-5-phenyl-2,3-dihydrospiro[indene-1,3′-pyrrolidine]-1′-yl) ketone]	25 to 50%
Cc1cccc(-c2ccc3c(c2)C(O)CC32CCN(C(=O)c3ccc(F)cn3)C2)c1C1CC1 (stereo not shown) [Example 85, (5-(2-cyclopropyl-3-methylphenyl)-3-hydroxy-2,3-dihydrospiro[indene-1,3′-pyrrolidine]-1′-yl)(5-fluoropyridin-2-yl) ketone]	70 to 100%
CCOc1ccccc1-c1ccc2c(c1)C(O)CC21CCN(C(=O)c2ccc(F)cn2)C1 (stereo not shown) [Example 86, (5-(2-ethoxyphenyl)-3-hydroxy-2,3-dihydrospiro[indene-1,3′-pyrrolidine]-1′-yl)(5-fluoropyridin-2-yl) ketone]	50 to 70%
O=C(c1ccc(F)cn1)N1CCC2(CC(O)c3cc(-c4cccc5c4CCC5)ccc32)C1 (stereo not shown) [Example 87, (5-(2,3-dihydro-1H-indene-4-yl)-3-hydroxy-2,3-dihydrospiro[indene-1,3′-pyrrolidine]-1′-yl)(5-fluoropyridin-2-yl) ketone]	50 to 70%
CC(C)(C)c1ccccc1-c1ccc2c(c1)C(O)CC21CCN(C(=O)c2ccc(F)cn2)C1 (stereo not shown) [Example 88, (5-(2-(tert-butyl)phenyl)-3-hydroxy-2,3-dihydrospiro[indene-1,3′-pyrrolidine]-1′-yl)(5-fluoropyridin-2-yl) ketone]	70 to 100%
CC(C)(O)c1ccccc1-c1ccc2c(c1)C(O)CC21CCN(C(=O)c2ccc(F)cn2)C1 (stereo not shown) [Example 89, (5-fluoropyridin-2-yl)(3-hydroxy-5-(2-(2-hydroxypropyl-2-)phenyl)-2,3-dihydrospiro[indene-1,3′-pyrrolidine]-1′-yl) ketone]	25 to 50%
Cc1ncccc1-c1ccc2c(c1)C(O)CC21CCN(C(=O)c2ccc(F)cn2)C1 (stereo not shown) [Example 91, (5-fluoropyridin-2-yl)(3-hydroxy-5-(2-methylpyridin-3-yl)-2,3-dihydrospiro[indene-1,3′-pyrrolidine]-1′-yl) ketone]	< 25%
O=C(c1ccc(F)cn1)N1CCC2(CC(O)c3cc(-c4cccc5ccccc45)ccc32)C1 (stereo not shown) [Example 92, (5-fluoropyridin-2-yl)(3-hydroxy-5-(naphthalen-1-yl)-2,3-dihydrospiro[indene-1,3′-pyrrolidine]-1′-yl) ketone]	70 to 100%
CC(=O)c1cc(F)ccc1-c1ccc2c(c1)C(O)CC21CCN(C(=O)c2ccc(F)cn2)C1 (stereo not shown) [Example 95, 1-(5-fluoro-2-(1′-(5-fluoropyridoyl)-3-hydroxy-2,3-dihydrospiro[indene-1,3′-pyrrolidine]-5-yl)phenyl)ethan-1-one]	70 to 100%
CC(C)c1ccccc1-c1ccc2c(c1)C1(CCN(C(=O)c3ccc(F)cn3)C1)CC2O (stereo not shown) [Example 103, (5-fluoropyridin-2-yl)(3-hydroxy-6-(2-isopropylphenyl)-2,3-dihydrospiro[indene-1,3′-pyrrolidine]-1′-yl) ketone]	< 25%
CC(C)c1ccccc1Oc1ccc2c(c1)C(O)CC21CCN(C(=O)c2ccc(F)cn2)C1 (stereo not shown) [Example 104, (5-fluoropyridin-2-yl)(3-hydroxy-5-(2-isopropylphenyloxy)-2,3-dihydrospiro[indene-1,3′-pyrrolidine]-1′-yl) ketone]	70 to 100%
CCc1nccnc1Oc1ccc2c(c1)C(O)CC21CCN(C(=O)c2ccc(F)cn2)C1 (stereo not shown) [Example 105, (5-((3-ethylpyrazin-2-yl)oxy)-3-hydroxy-2,3-dihydrospiro[indene-1,3′-pyrrolidine]-1′-yl)(5-fluoropyridin-2-yl] ketone]	< 25%
CC(C)c1ccccc1Sc1ccc2c(c1)C(O)CC21CCN(C(=O)c2ccc(F)cn2)C1 (stereo not shown) [Example 106, (5-fluoropyridin-2-yl)(3-hydroxy-5-((2-isopropylphenyl)thio)-2,3-dihydrospiro[indene-1,3′-pyrrolidine]-1′-yl) ketone]	70 to 100%
CC(C)c1ccccc1[S+]([O-])c1ccc2c(c1)C(O)CC21CCN(C(=O)c2ccc(F)cn2)C1 (stereo not shown) [Example 107, (5-fluoropyridin-2-yl)(3-hydroxy-5-((2-isopropylphenyl)sulfoxide)-2,3-dihydrospiro[indene-1,3′-pyrrolidine]-1′-yl) ketone]	< 25%
CC(C)c1ccccc1S(=O)(=O)c1ccc2c(c1)C(O)CC21CCN(C(=O)c2ccc(F)cn2)C1 (stereo not shown) [Example 108, (5-fluoropyridin-2-yl)(3-hydroxy-5-((2-isopropylphenyl)sulfonyl)-2,3-dihydrospiro[indene-1,3′-pyrrolidine]-1′-yl) ketone]	< 25%

The next lines start with the values.

inhibition at 0.3 µM	Compound
< 25%	CC(C)c1ccccc1-c1ccc2c(c1)CCC21CCN(C(=O)c2ccc(F)cn2)C1 (stereo not shown) [Example 120, (5-fluoropyridin-2-yl)(5-(2-isopropylphenyl)-2,3-dihydrospiro[indene-1,3′-pyrrolidine]-1′-yl) ketone]
70 to 100%	CC(C)c1ccccc1-c1ccc2c(c1)C(CO)CC21CCN(C(=O)c2ccc(F)cn2)C1 (stereo not shown) [Example 126, (5-fluoropyridin-2-yl)(3-(methylol)-5-(2-isopropylphenyl)-2,3-dihydrospiro[indene-1,3′-pyrrolidine]-1′-yl) ketone]
< 25%	CC(C)c1ccccc1-c1ccc2c(c1)C(C(=O)O)CC21CCN(C(=O)c2ccc(F)cn2)C1 (stereo not shown) [Example 129, 1′-(5-fluoropyridoyl)-5-(2-isopropylphenyl)-2,3-dihydrospiro[indene-1,3′-pyrrolidine]-3-carboxylic acid]
< 25%	COC(=O)C1CC2(CCN(C(=O)c3ccc(F)cn3)C2)c2ccc(-c3ccccc3C(C)C)cc21 (stereo not shown) [Example 130, methyl 1′-(5-fluoropyridoyl)-5-(2-isopropylphenyl)-2,3-dihydrospiro[indene-1,3′-pyrrolidine]-3-carboxylate]
< 25%	CC(C)c1ccccc1-c1ccc2c(c1)C(O)CC21CCN(Cc2ccc(F)cn2)C1 (stereo not shown) [Example 134, 1′-((5-fluoropyridin-2-yl)methyl)-5-(2-isopropylphenyl)-2,3-dihydrospiro[indene-1,3′-pyrrolidine]-3-ol]
< 25%	CC(C)c1ccccc1-c1ccc2c(c1)C(O)CC21CCN(S(=O)(=O)c2ccc(Cl)cn2)C1 (stereo not shown) [Example 135, 1′-((5-chloropyridin-2-yl)sulfonyl)-5-(2-isopropylphenyl)-2,3-dihydrospiro[indene-1,3′-pyrrolidine]-3-ol]
< 25%	CC(C)c1ccccc1-c1ccc2c(c1)C(O)CC21CC(=O)N(Cc2ccc(F)cn2)C1 (stereo not shown) [Example 137, 1′-((5-fluoropyridin-2-yl)methyl)-3-hydroxy-5-(2-isopropylphenyl)-2,3-dihydrospiro[indene-1,3′-pyrrolidine]-5′-one]
< 25%	CC(C)c1ccccc1-c1ccc2c(c1)C(O)CC21CCN(C(F)(F)c2ccc(F)cn2)C1 (stereo not shown) [Example 146, 1′-(difluoro(5-fluoropyridin-2-yl)methyl)-5-(2-isopropylphenyl)-2,3-dihydrospiro[indene-1,3′-pyrrolidine]-3-ol]
70 to 100%	OC1CC2(CCN(c3cnc4cc(Cl)ccn34)C2)c2ccc(-c3ccccc3C3CC3)cc21 (stereo not shown) [Example 152, 5-(2-cyclopropylphenyl)-1′-(7-chloroimidazo[1,2-a]pyridin-3-yl)-2,3-dihydrospiro[indene-1,3′-pyrrolidine]-3-ol]
70 to 100%	OC1CC2(CCN(c3cnc4cc(F)ccn34)C2)c2ccc(-c3ccccc3C3CC3)cc21 (stereo not shown) [Example 153, 5-(2-cyclopropylphenyl)-1′-(7-fluoroimidazo[1,2-a]pyridin-3-yl)-2,3-dihydrospiro[indene-1,3′-pyrrolidine]-3-ol]
< 25%	O=C1C[C@@]2(CCN(C(=O)c3ccc(F)cn3)C2)c2ccc(-c3ccccc3C3CC3)cc21 [Example 162, (S)-5-(2-cyclopropylphenyl)-1′-(5-fluoropyridoyl)spiro[indene-1,3′-pyrrolidine]-3(2H)-one]
